From patent publication US11406655B2, “Once-daily treatment of pulmonary fibrosis” (Galecto Biotech AB, priority 2015, dated 2022)

How the values were obtained:
[1] = Particle size (MMAD) of the dry powder used in the study; format: physicochemical; conditions: dry powder of the study in the Experimental section
Method: When the compound of formula (I) is formulated as a dry powder it may be present in a suitable particle size selected from a mean mass aerodynamic diameter (MMAD) between 0.1 and 20 μm, such as a MMAD between 0.5 and 10 μm, such as between 1 and 5 μm, typically between 2 and 3 μm. In the study described in the Experimental section below the MMAD was measured to 2.5 μm.

[2] = First in Human single ascending dose phase I study: safety and tolerability; format: in vivo
Method: (§1) This study was a randomized, double-blind, single center, placebo-controlled, single ascending dose (SAD), phase I study to assess the safety, tolerability, PK (pharmacokinetics) and PD (pharmacodynamics) of the compound of formula I in 36 healthy male volunteers (HV's). 6 dose cohorts of 6 subjects were evaluated using a 4:2 ratio (active:placebo). The compound of formula I was delivered to the lungs of HV's using the RS01 Monodose Dry Powder Inhaler (Plastiape) at the following 6 doses: 0.15 mg, 1.5 mg, 3 mg, 10 mg, 20 mg and 50 mg. The 0.15 mg, 1.5 mg and 3 mg dose was a 3% w/w lactose blend, whereas the 10 mg, 20 mg and 50 mg dose was formulated as neat material. The specific capsule filling weights were 5 mg for the 0.15 mg dose, 50 mg for the 1.5 mg dose, 5 mg for the 10 mg dose and 50 mg for the 50 mg dose. HV's were housed overnight and vital signs, EKG, physical exam, urinalysis and laboratory bloods followed for 14 days. PK blood sampling was taken prior to dosing and then at intervals up to 48 hrs post-dose. Plasma samples for drug concentration measurements were analyzed by the Bioanalytical Unit at Simbec (UK). PK variables were determined using the non-compartmental analysis option in the software WinNONLIN 6.3 from Certara based in Princeton, N.J. 08540 (www.certara.com).

[3] = molecular target: Galectin-3 (Homo sapiens, UniProt P17931); conditions: 3 mg inhaled dose; from Cmax, mouse lung/circulation ratio and ex-vivo data in human derived macrophages
Sequence of Galectin-3 (P17931 whole entry): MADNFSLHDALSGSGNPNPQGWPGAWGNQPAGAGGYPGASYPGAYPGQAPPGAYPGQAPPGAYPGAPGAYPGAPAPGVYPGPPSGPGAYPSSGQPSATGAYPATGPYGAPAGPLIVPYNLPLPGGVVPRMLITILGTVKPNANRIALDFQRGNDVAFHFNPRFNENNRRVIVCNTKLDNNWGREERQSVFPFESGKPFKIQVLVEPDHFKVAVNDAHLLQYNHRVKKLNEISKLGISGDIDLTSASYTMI

[4] = First in Human single ascending dose phase I study: plasma pharmacokinetics after inhalation; format: in vivo
Method: as §1

[5] = Radioisotope studies of lung deposition in mice; format: in vivo
[6] = GLP toxicokinetic studies, murine intravenous dosing; format: in vivo

mean mass aerodynamic diameter (MMAD) [1]: 2.5 μm
local concentration in the lung in man in excess of that required to suppress Galectin-3 in lung target cells [3]: 2 fold
dose dependence of drug concentrations based on Cmax and AUC ([4]; inhaled single ascending doses 0.15-50 mg): exhibited dose proportionality
Tmax ([4]; male, human, inhaled or intranasal, inhaled single dose, independent of dose): 0.8 to 3 h
half-life ([4]; male, human, inhaled or intranasal, inhaled single dose, read-out: t½ (converted)): 12 h
concentration in the lung relative to the circulation [5]: fifty times greater
Compound: OC[C@H]1O[C@@H](S[C@@H]2O[C@H](CO)[C@H](O)[C@H](n3cc(-c4cccc(F)c4)nn3)[C@H]2O)[C@H](O)[C@@H](n2cc(-c3cccc(F)c3)nn2)[C@H]1O [compound of formula I, bis (3-deoxy-3-(3-fluorophenyl-1H-1,2,3-triazol-1-yl)-β-D-galactopyranosyl)-sulfane]
tolerability ([2]; healthy male volunteers, single inhaled dose, all 6 doses (0.15 mg to 50 mg), RS01 dry powder inhaler): extremely well tolerated
adverse events (severity) ([2]; healthy male volunteers, headache, cough and dose-related parageusia (neat blend only), self-limiting): only mild in nature
changes from baseline in EKG, vital signs, bloods and urinalysis ([2]; up to 2 weeks post-dose): no significant changes from baseline
fraction of compound found in the feces [6]: ~90%
